Results from PMC10606765, “Study of the Structural Chemistry of the Inclusion Complexation of 4-Phenylbutyrate and Related Compounds with Cyclodextrins in Solution: Differences in Inclusion Mode with Cavity Size Dependency” (International Journal of Molecular Sciences, 2023).
Where two headings read alike, the source gives them in different places. Marks after values point to notes of the source that are not given here.

Tests used:
[1] = design: method as in PMID 36548517; conditions: phase solubility, 0.1 M phosphate buffer (pH 2.1), 25 °C, mean ± SD (n = 3); cited from earlier work
[2] = design: method as in PMID 36548517; conditions: proton Y monitored, 0.1 M sodium borate/D2O, 25 °C, total concentration 1.0 × 10^−2 M; cited from earlier work
[3] = design: method as in PMID 36548517; conditions: 0.1 M phosphate buffer (pH 2.1), 25 °C, cited from earlier work
[4] = design: method as in PMID 36548517; conditions: phase solubility, 0.1 M phosphate buffer (pH 2.1), 25 °C, mean ± SD (n = 3); cited from earlier work; remark: listed apart in the source
[5] = Phase solubility study with γCD; format: physicochemical; conditions: 0.1 M phosphate buffer (pH 2.1), 25 °C, mean ± SD (n = 3)
Procedure: (§1) Phase solubility studies were conducted according to the method described by Higuchi and Connors. Briefly, 1 mL of CD solutions (0 to 14 mM, pH 2.1) were added to excess amounts of PB or related compounds placed in screw cap tubes. The resulting samples were shaken for 72 h at 25 °C and 120 rpm (Multi Shaker MMS-3020 in a temperature control chamber FMC-1000; Eyela Co., Ltd., Tokyo, Japan). The resulting suspensions were filtered through 0.2 µm membrane filters (Minisart RC 4, Sartorius Stedim Lab Ltd., Stonehouse, UK) and diluted appropriately. The solubility of PB or related compounds was determined by HPLC, and the data were used to construct phase solubility diagrams. The guest/host ratios for the systems showing BS-type solubility diagrams were estimated as the quotient of the amount of undissolved guest at the start of the plateau region and the CD concentration range corresponding to the plateau region.
(§2) HPLC measurements were performed according to a previous report using a JASCO HPLC system (Jasco Corp., Tokyo, Japan). A YMC-PACK ODS AM 303 column (5 µm, 250 mm × 4.6 mm, YMC Co., Kyoto, Japan) was used as the stationary phase and was maintained at 40 °C. […] For PC and PH, the elution program used was 0–7 min (50–100% B), 7–10 min (100% B), and 10–15 min (100–50% B) at a constant flow rate of 1 mL/min.

[6] = Phase solubility study with αCD; format: physicochemical; conditions: 0.1 M phosphate buffer (pH 2.1), 25 °C; for Apparent stability constant K αCD / Guest/Host Ratio αCD: phase solubility, mean ± SD (n = 3)
Procedure: as §1, §2

[7] = Phase solubility study with βCD; format: physicochemical; conditions: 0.1 M phosphate buffer (pH 2.1), 25 °C, mean ± SD (n = 3)
Procedure: as §1, §2

[8] = 1H NMR continuous variation plot with αCD; format: binding; conditions: proton Y monitored, 0.1 M sodium borate/D2O, 25 °C, total concentration 1.0 × 10^−2 M
Procedure: ^1H NMR spectra were obtained using a JEOL-A500 spectrometer (Tokyo, Japan) operating at 500 MHz in 5 mm sample tubes at 25 °C using D2O/0.1 M sodium borate (pH meter reading of 9.4) as solvent. The resonance at 4.68 to 4.75 ppm, due to residual solvents (H2O and HOD), was used as an internal reference. Chemical shifts are given as parts per million (ppm), with an accuracy of ±0.001. No external reference was used to avoid possible interactions with the CDs. The ^1H NMR signals of the guests (PB and related compounds) were assigned by 2D ^1H-^1H correlation spectroscopy (COSY), whereas those of the CDs were assigned according to a previous report. The complex stoichiometries were determined by the continuous variation method, where the total concentrations of CD and guest were kept constant at 1.0 × 10^−2 M. In addition, the changes in the chemical shift of CDs and the guest protons in their equimolar systems (5.0 × 10^−3 M) were monitored. […] The stability constant values of the complexes formed by PH were determined from the curves. Two-dimensional ROESY NMR experiments were performed for the CD-PH systems in the phase-sensitive mode using the same spectrometer. Each spectrum consisted of a matrix of F2 by F1 covering a sweep width of 5000 Hz with 36 scans. The spin-lock mixing time was 800 ms, with a relaxation delay of 4 s, and a 90° pulse width of 11.8 µs. The concentration of guest and host were 2.5 × 10^−2 M/1.0 × 10^−1 M (PH/αCD), 1.5 × 10^−2 M/2.5 × 10^−2 M (PH/βCD), and 2.5 × 10^−2 M/2.5 × 10^−2 M (PH/γCD). The stability constants (K1:1) of the PH–CD complexes were estimated by analyzing the first-order dependences of the chemical shift change of PH protons on CD concentration using Equation (2):(2) δobs=δ0+δ1K1:1CDf/1+K1:1CDf where δ0 and δobs are chemical shifts of PH protons without or with CD, respectively, and δ1 is the chemical shift of PH protons in the 1:1 complex.

[9] = 1H NMR molar ratio titration with βCD (stability constant); format: binding
Procedure: (§3) ^1H NMR spectra were obtained using a JEOL-A500 spectrometer (Tokyo, Japan) operating at 500 MHz in 5 mm sample tubes at 25 °C using D2O/0.1 M sodium borate (pH meter reading of 9.4) as solvent. The resonance at 4.68 to 4.75 ppm, due to residual solvents (H2O and HOD), was used as an internal reference. Chemical shifts are given as parts per million (ppm), with an accuracy of ±0.001. No external reference was used to avoid possible interactions with the CDs. The ^1H NMR signals of the guests (PB and related compounds) were assigned by 2D ^1H-^1H correlation spectroscopy (COSY), whereas those of the CDs were assigned according to a previous report. The complex stoichiometries were determined by the continuous variation method, where the total concentrations of CD and guest were kept constant at 1.0 × 10^−2 M. In addition, the changes in the chemical shift of CDs and the guest protons in their equimolar systems (5.0 × 10^−3 M) were monitored. […] The stability constant values of the complexes formed by PH were determined from the curves. […]
(§4) The equation was analyzed by the iteration method since the concentration of free CD ([CD]f) is unknown unless K1:1 had been determined beforehand. […] Therefore, by setting [CD]f = [CD]t as a first approximation, Equation (2) was analyzed by a nonlinear least-squares method, and, in turn, [CD]f values were calculated using the obtained apparent K1:1 value. […]

[10] = 1H NMR molar ratio titration with γCD (stability constant); format: binding
Procedure: as §3, §4

[11] = 1H NMR molar ratio titration with αCD (stability constant); format: binding
Procedure: as §3, §4

[12] = NMR value (pH 9.4) vs phase solubility value (pH 2.1)

Row | Apparent stability constant K γCD [5] [M⁻¹] | Guest/Host Ratio γCD [5] | Phase solubility diagram type with αCD [6] | Apparent stability constant K αCD [6] [M⁻¹] | Apparent stability constant K βCD [7] [M⁻¹] | Guest/Host Ratio βCD [7] | Maximum of continuous variation plot, guest/(guest + host) mole fraction, αCD [8] | Guest/Host Ratio αCD [6] | Structure (SMILES) | further results
1 |  |  |  |  |  |  |  |  | O=C(O)CCCc1ccccc1 [PB, 4-phenylbutyrate] | Apparent stability constant K γCD [1]: 119 ± 9 ^a M^−1; Guest/Host Ratio γCD [1]: 2.14 ± 0.08 ^b; Maximum of continuous variation plot, guest/(guest + host) mole fraction, αCD [2]: 0.5; Phase solubility diagram type with αCD [3]: AL-type; Apparent stability constant K αCD ([3]; phase solubility, mean ± SD (n = 3)): 481 ± 26 ^a M^−1; Apparent stability constant K βCD [4]: 178 ± 23 ^a M^−1; Guest/Host Ratio βCD [4]: 1.02 ± 0.05 ^b
2 | 223 ± 7 | 2.21 ± 0.03 | AL-type | 639 ± 20 | 838 ± 52 | 0.99 ± 0.05 | 0.35 |  | O=C(O)CCCCc1ccccc1 [PV, 5-phenylvaleric acid] | 
3 | 34 ± 1 |  | AL-type | 226 ± 5 | 74 ± 3 |  |  |  | O=C(O)CCc1ccccc1 [PP, 3-phenylpropionic acid] | 
4 | 1213 ± 18 | 2.20 ± 0.01 | BS-type | 2500 ± 50 | 7458 ± 52 | 1.02 ± 0.01 | 0.35 | 0.44 ± 0.01 | O=C(O)CCCCCCc1ccccc1 [PH, 7-phenylheptanoic acid] | Reduction of stability constant of βCD complex compared to value at pH 2.1 [9, 12]: 3 fold; Stability constant K1:1 of βCD complex from 1H NMR chemical shift change ([9]; determined from protons A and X, 0.1 M sodium borate/D2O (pH 9.4), 25 °C): 2513 ± 469 M⁻¹; Reduction of stability constant of γCD complex compared to value at pH 2.1 [10, 12]: 3 fold; Stability constant K1:1 of γCD complex from 1H NMR chemical shift change ([10]; determined from protons C and X, 0.1 M sodium borate/D2O (pH 9.4), 25 °C): 370 ± 6 M⁻¹; Reduction of stability constant of αCD complex compared to value at pH 2.1 [11, 12]: 20 fold; Stability constant K1:1 of αCD complex from 1H NMR chemical shift change ([11]; determined from protons A and Y, 0.1 M sodium borate/D2O (pH 9.4), 25 °C): 123 ± 2 M⁻¹
5 | 499 ± 59 | 2.30 ± 0.03 | BS-type | 1185 ± 35 | 2283 ± 134 | 1.08 ± 0.01 | 0.35 | 0.55 ± 0.03 | O=C(O)CCCCCc1ccccc1 [PC, 6-phenylcaproic acid] | 
